The supplement of paper PMC10307832

Assays:
Assay in all cases: relative viability (nuclei count vs DMSO), 5 days (fraction); higher = more cells survive
VE-821 + Trametinib = compound: CS(=O)(=O)c1ccc(-c2cnc(N)c(C(=O)Nc3ccccc3)n2)cc1 [VE-821] + CC(=O)Nc1cccc(-n2c(=O)n(C3CC3)c(=O)c3c(Nc4ccc(I)cc4F)n(C)c(=O)c(C)c32)c1 [Trametinib] (partner 0.02 µM)
Outline: (§1)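 Dosing by pin tool came one day after lung cancer cell lines were seeded in 1536-well plates, using either one drug or a fixed anchor-drug dose plus five library-drug doses (not always all listed) in √10 steps. After 5 days, nuclei were counted on 4× images. Relative viability is treated-well nuclei count divided by vehicle-well nuclei count, and values are medians of duplicate plates.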

VE-821 + Pemetrexed = compound: CS(=O)(=O)c1ccc(-c2cnc(N)c(C(=O)Nc3ccccc3)n2)cc1 [VE-821] + Nc1nc2[nH]cc(CCc3ccc(C(=O)N[C@@H](CCC(=O)O)C(=O)O)cc3)c2c(=O)[nH]1 [Pemetrexed] (partner 0.2 µM)
Outline: as §1

Vismodegib + Luminespib = compound: CS(=O)(=O)c1ccc(C(=O)Nc2ccc(Cl)c(-c3ccccn3)c2)c(Cl)c1 [Vismodegib] + CCNC(=O)c1noc(-c2cc(C(C)C)c(O)cc2O)c1-c1ccc(CN2CCOCC2)cc1 [Luminespib] (partner 0.01 µM)
Outline: as §1

Vismodegib + AZD7762 = compound: CS(=O)(=O)c1ccc(C(=O)Nc2ccc(Cl)c(-c3ccccn3)c2)c(Cl)c1 [Vismodegib] + NC(=O)Nc1cc(-c2cccc(F)c2)sc1C(=O)N[C@H]1CCCNC1 [AZD7762] (partner 0.2 µM)
Outline: as §1

| Cell Line | relative viability (VE-821 + Trametinib; first compound 0.08 µM) | relative viability (VE-821 + Trametinib; first compound 0.253 µM) | relative viability (VE-821 + Trametinib; first compound 0.8 µM) | relative viability (VE-821 + Trametinib; first compound 2.53 µM) | relative viability (VE-821 + Trametinib; first compound 8 µM) | relative viability (VE-821 + Pemetrexed; first compound 0.08 µM) | relative viability (VE-821 + Pemetrexed; first compound 0.253 µM) | relative viability (VE-821 + Pemetrexed; first compound 0.8 µM) | relative viability (VE-821 + Pemetrexed; first compound 2.53 µM) | relative viability (VE-821 + Pemetrexed; first compound 8 µM) | relative viability (Vismodegib + Luminespib; first compound 0.08 µM) | relative viability (Vismodegib + Luminespib; first compound 0.253 µM) | relative viability (Vismodegib + Luminespib; first compound 0.8 µM) | relative viability (Vismodegib + Luminespib; first compound 2.53 µM) | relative viability (Vismodegib + Luminespib; first compound 8 µM) | relative viability (Vismodegib + AZD7762; first compound 0.08 µM) | relative viability (Vismodegib + AZD7762; first compound 0.253 µM) | relative viability (Vismodegib + AZD7762; first compound 0.8 µM) | relative viability (Vismodegib + AZD7762; first compound 2.53 µM) | relative viability (Vismodegib + AZD7762; first compound 8 µM) |
| --- | --- | --- | --- | --- | --- | --- | --- | --- | --- | --- | --- | --- | --- | --- | --- | --- | --- | --- | --- | --- |
| ChaGo-K-1 | 0.981 | 0.932 | 0.866 | 0.969 | 0.851 | 0.28 | 0.333 | 0.274 | 0.261 | 0.253 | 0.565 | 0.622 | 0.598 | 0.525 | 0.516 | 0.886 | 0.873 | 0.753 | 0.857 | 0.97 |
| NCI-H1755 | 0.86 | 0.737 | 0.781 | 0.711 | 0.741 | 0.464 | 0.655 | 0.431 | 0.361 | 0.247 | 0.403 | 0.327 | 0.39 | 0.366 | 0.461 | 0.453 | 0.568 | 0.515 | 0.449 | 0.41 |
| LCLC-103H | 0.748 | 0.662 | 0.675 | 0.68 | 0.663 | 0.47 | 0.439 | 0.518 | 0.475 | 0.437 | 1.03 | 0.968 | 0.93 | 0.884 | 1.07 | 0.752 | 0.796 | 0.735 | 0.774 | 0.834 |
| HCC-827 | 0.613 | 0.524 | 0.565 | 0.52 | 0.499 | 0.248 | 0.306 | 0.251 | 0.23 | 0.213 | 0.658 | 0.762 | 0.691 | 0.589 | 0.733 | 0.278 | 0.183 | 0.258 | 0.168 | 0.169 |
| HCC-44 | 1.11 | 1.03 | 1.12 | 1.13 | 0.961 | 0.613 | 0.649 | 0.596 | 0.479 | 0.447 | 1 | 0.966 | 1 | 0.979 | 1.05 | 1.06 | 1.04 | 0.932 | 1.01 | 1.04 |
| NCI-H596 | 0.78 | 0.802 | 0.752 | 0.798 | 0.594 | 0.511 | 0.48 | 0.485 | 0.454 | 0.374 | 1.04 | 0.96 | 1.15 | 1.05 | 1.02 | 1.07 | 1.04 | 0.954 | 1.11 | 1.08 |
| NCI-H322M | 0.604 | 0.565 | 0.572 | 0.493 | 0.472 | 0.616 | 0.639 | 0.542 | 0.532 | 0.385 | 0.876 | 0.797 | 0.881 | 0.812 | 0.818 | 0.598 | 0.503 | 0.603 | 0.507 | 0.548 |
| H3255 | 0.666 | 0.646 | 0.619 | 0.88 | 0.63 | 0.6 | 0.583 | 0.61 | 0.604 | 0.517 | 0.798 | 0.996 | 0.799 | 0.818 | 0.857 | 0.951 | 0.886 | 0.818 | 0.785 | 0.853 |
| PC-14 | 0.966 | 0.689 | 0.656 | 0.63 | 0.429 | 0.126 | 0.124 | 0.0908 | 0.0863 | 0.0432 | 0.132 | 0.137 | 0.151 | 0.165 | 0.14 | 0.301 | 0.326 | 0.458 | 0.272 | 0.353 |
| NCI-H2342 | 0.804 | 0.907 | 0.8 | 0.849 | 0.492 | 0.792 | 0.777 | 0.804 | 0.736 | 0.667 | 0.588 | 0.728 | 0.748 | 0.79 | 0.71 | 0.576 | 0.479 | 0.633 | 0.362 | 0.416 |
| NCI-H2405 | 0.643 | 0.628 | 0.53 | 0.699 | 0.546 | 1.09 | 1.04 | 1.05 | 1.12 | 0.884 | 0.735 | 0.691 | 0.706 | 0.686 | 0.686 | 0.739 | 0.711 | 0.637 | 0.706 | 0.73 |
| PC-3 [JPC-3] | 0.727 | 0.744 | 0.701 | 0.826 | 0.763 | 1.25 | 1.03 | 1.18 | 1.13 | 0.848 | 0.737 | 0.651 | 0.689 | 0.653 | 0.745 | 0.824 | 0.715 | 0.743 | 0.729 | 0.708 |
| NCI-H2347 | 0.298 | 0.276 | 0.289 | 0.292 | 0.324 | 0.482 | 0.45 | 0.418 | 0.445 | 0.526 | 0.402 | 0.759 | 0.709 | 0.399 | 0.586 | 0.774 | 0.718 | 0.782 | 0.83 | 0.799 |
| LXF-289 | 0.708 | 0.641 | 0.773 | 0.745 | 0.741 | 0.902 | 0.928 | 0.936 | 1.01 | 0.847 | 0.625 | 0.691 | 0.764 | 0.611 | 0.738 | 1.02 | 1.1 | 1.1 | 1.09 | 1.08 |
| NCI-H1734 | 0.718 | 0.732 | 0.651 | 0.723 | 0.587 | 0.413 | 0.391 | 0.374 | 0.351 | 0.297 | 0.19 | 0.186 | 0.166 | 0.198 | 0.189 | 0.575 | 0.447 | 0.552 | 0.556 | 0.488 |
| NCI-H3122 | 0.219 | 0.216 | 0.235 | 0.228 | 0.265 | 0.202 | 0.19 | 0.176 | 0.159 | 0.128 | 0.109 | 0.088 | 0.0658 | 0.073 | 0.0765 | 0.959 | 0.953 | 0.959 | 0.965 | 0.955 |
| CAL-12T | 0.372 | 0.355 | 0.325 | 0.322 | 0.325 | 1.22 | 1.14 | 1.04 | 1.1 | 0.759 | 0.531 | 0.366 | 0.436 | 0.503 | 0.575 | 0.643 | 0.559 | 0.607 | 0.577 | 0.664 |
| NCI-H522 | 0.859 | 0.753 | 0.65 | 0.769 | 0.717 | 1.28 | 1 | 0.909 | 1.16 | 0.778 | 1.1 | 1.1 | 0.939 | 1.34 | 1.09 | 1.06 | 0.875 | 0.849 | 0.81 | 0.857 |
| HARA | 0.686 | 1.08 | 0.553 | 0.767 | 0.608 | 0.253 | 0.232 | 0.201 | 0.169 | 0.131 | 0.699 | 0.843 | 0.888 | 0.655 | 0.779 | 0.462 | – | 0.309 | 0.244 | 0.417 |
| NCI-H1666 | 0.833 | 0.809 | 0.867 | 0.718 | 0.85 | 0.941 | 0.841 | 0.779 | 0.558 | 0.571 | 0.985 | 0.986 | 1.15 | 0.999 | 1.06 | 0.878 | 0.772 | 0.882 | 0.751 | 0.827 |
| NCI-H460 | 0.185 | 0.0922 | 0.121 | 0.11 | 0.0592 | 0.0644 | 0.0622 | 0.0609 | 0.056 | 0.0393 | 0.0373 | 0.0299 | 0.038 | 0.0291 | 0.0297 | 0.583 | 0.56 | 0.576 | 0.535 | 0.724 |
| NCI-H1792 | 0.505 | 0.464 | 0.361 | 0.65 | 0.492 | 1.19 | 0.59 | 0.865 | 0.996 | 0.568 | 0.344 | 0.517 | 0.342 | 0.467 | 0.414 | 0.682 | 0.679 | 0.677 | 0.724 | 0.729 |
| NCI-H2087 | 0.218 | 0.275 | 0.177 | 0.222 | 0.234 | 0.667 | 0.634 | 0.65 | 0.679 | 0.67 | 0.171 | 0.192 | 0.172 | 0.203 | 0.209 | 1.28 | 1.14 | 1.14 | 1.33 | 1.36 |
| NCI-H1355 | 0.53 | 0.424 | 0.349 | 0.429 | 0.381 | 1.15 | 0.976 | 0.888 | 1.05 | 0.903 | 0.634 | 0.714 | 0.687 | 0.794 | 0.688 | 0.763 | 0.694 | 0.806 | 0.744 | 0.722 |
| NCI-H838 | 0.568 | 0.472 | 0.544 | 0.648 | 0.345 | 0.259 | 0.264 | 0.21 | 0.17 | 0.159 | 0.247 | 0.271 | 0.33 | 0.409 | 0.331 | 0.799 | 0.876 | 0.918 | 0.888 | 0.975 |
| NCI-H2085 | 0.507 | 0.463 | 0.269 | – | 0.364 | 0.936 | 0.848 | 0.61 | – | 0.612 | 0.393 | 0.441 | 0.423 | 0.434 | 0.474 | 0.972 | 0.972 | 1.11 | 0.997 | 0.914 |
| NCI-H1651 | 0.876 | 0.799 | 0.733 | 0.808 | 0.821 | 0.576 | 0.616 | 0.625 | 0.554 | 0.545 | 0.816 | 0.819 | 0.86 | 0.866 | 0.791 | 0.512 | 0.454 | 0.535 | 0.36 | 0.433 |
